Measured values from US20260098030A1, “NEGATIVE ALLOSTERIC MODULATORS OF METABOTROPIC GLUTAMATE RECEPTOR 2” (Vanderbilt University, priority 2022, published 2026).

Target: T1, human mGlu2 (Homo sapiens, UniProt Q14416)
T1 construct: expressed in transfected cells; host or cells: HEK-293 cells stably co-expressing GIRK channels
Experiment: mGlu GIRK cell-based thallium flux assay, human mGlu2
Details: HEK-293 cells co-expressing human mGlu2 and GIRK, EC80 glutamate
Method: Human embryonic kidney (HEK-293) cell lines stably co-expressing human or rat mGlu2 and G protein-coupled inwardly rectifying potassium (GIRK) channels, or human mGlu3 and GIRK, were used for in vitro evaluation of compound activity in thallium flux assay using a fluorescent thallium indicator dye.
The day before the assay, GIRK cells co-expressing human mGlu3, human or rat mGlu2, as described above, were plated in black-walled, clear-bottomed, amine-coated 384-well plates at a density of 15,000 cells/20 μL/well in the assay medium (glutamine-depleted basal DMEM supplemented with 10% dialyzed FBS, 20 mM HEPES, 1 mM sodium pyruvate). Cells were incubated at 37° C. in the presence of 5% CO2. The next day, assay buffer (Hanks balanced salt solution, 20 mM HEPES, 4.16 mM sodium bicarbonate, pH 7.2) was prepared to dilute compounds and Thallos AM fluorescent dye solution. The 2× Thallos dye solution (final concentration 0.34 μM to the cells) was prepared by mixing the dye stock (2.97 mM in DMSO) to 1:1 with 10% pluronic acid before adding to the assay buffer. Cells were washed with assay buffer using a microplate washer to remove the medium, resulting in 20 μL of buffer remaining in each well. Immediately, 20 μL of 2× Thallos dye solution was added to cells, and incubated for one hour at 25° C. During the cell dye loading incubation period, a 10-point concentration serial dilution of compound was created from a 10 mM DMSO compound stock by performing a 1:3 serial dilution in DMSO using the Bravo liquid handler. The 2× compound plate was generated by transferring 0.24 μL of the diluted compound in each well to a daughter plate using an Echo acoustic liquid handler. This is further diluted in 40 μL assay buffer, resulting in a range from 30 μM to 1.5 nM final concentration in the assay. The agonist plate (5×) was prepared to include EC80 glutamate concentration (a concentration to elicit 80% of a maximally effective glutamate concentration) in thallium buffer (125 mM […], 1 mM magnesium sulfate, 1.8 mM calcium sulfate, 5 mM glucose, 10 mM HEPES, pH 7.2, 12.5 mM thallium sulfate).
After dye-loading, cell plates were washed with assay buffer to remove excess extracellular dye using a microplate washer, resulting in 20 μL of buffer remaining in each well. After a ten-minute equilibration period, cell, compound and agonist plates were loaded into a Hamamatsu μCell kinetic imaging plate reader equipped with liquid handler to monitor fluorescence changes at 480 nm excitation and 540 nm emission settings. Briefly, after collection of baseline fluorescence, 20 μL of compound was added and incubated for two minutes and twenty seconds. This is immediately followed by adding 10 μL of glutamate-thallium buffer to the wells containing compound. The fluorescent signal was monitored an additional 2.5 minutes after the glutamate addition. Multiple reference wells containing no compound received either no glutamate (for a baseline reference), EC80 glutamate, or ECmax glutamate (for normalization to maximum response). Fluorescence was measured throughout the experiment at a frequency of 1 measurement per every 2 seconds before the glutamate addition and a frequency of 1 measurement per every 1 second after the glutamate addition. Each compound concentration series occurred one time in each plate, and replicates from two or three plates were used in each experimental run. Thallium solutions were handled and disposed of according to guidelines from the Vanderbilt University Chemical Safety department.
Data were normalized using a static ratio function (F/F0) by dividing every fluorescent measurement by the initial fluorescent value for the corresponding well. The increase in signal resulting from the glutamate/thallium addition of the second add was measured by determining the slope from 3 seconds to 13 seconds after the addition. […]

T1 sequence (Q14416 19-872): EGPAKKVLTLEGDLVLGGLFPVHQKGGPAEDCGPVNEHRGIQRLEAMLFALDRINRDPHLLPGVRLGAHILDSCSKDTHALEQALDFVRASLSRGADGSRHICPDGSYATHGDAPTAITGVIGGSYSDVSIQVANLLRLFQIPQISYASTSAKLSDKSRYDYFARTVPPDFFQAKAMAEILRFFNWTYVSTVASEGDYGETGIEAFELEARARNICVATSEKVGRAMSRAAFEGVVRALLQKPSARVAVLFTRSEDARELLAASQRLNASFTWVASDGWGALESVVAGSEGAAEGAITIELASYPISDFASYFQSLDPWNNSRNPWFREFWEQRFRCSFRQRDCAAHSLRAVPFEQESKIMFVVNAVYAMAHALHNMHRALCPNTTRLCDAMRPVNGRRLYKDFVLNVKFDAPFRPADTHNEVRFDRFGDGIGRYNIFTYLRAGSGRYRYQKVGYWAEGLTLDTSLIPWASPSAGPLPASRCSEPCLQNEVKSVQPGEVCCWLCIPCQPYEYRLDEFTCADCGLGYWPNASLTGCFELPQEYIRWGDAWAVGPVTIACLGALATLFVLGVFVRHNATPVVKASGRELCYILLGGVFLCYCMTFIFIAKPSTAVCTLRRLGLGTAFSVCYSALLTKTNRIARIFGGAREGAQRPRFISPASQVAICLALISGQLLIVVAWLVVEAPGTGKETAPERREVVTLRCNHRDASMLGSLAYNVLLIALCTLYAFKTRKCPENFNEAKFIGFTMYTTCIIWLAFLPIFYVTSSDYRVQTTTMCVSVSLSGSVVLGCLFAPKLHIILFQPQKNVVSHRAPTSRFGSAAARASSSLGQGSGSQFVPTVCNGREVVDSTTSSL

| Compound | IC50 [nM] |
| --- | --- |
| O=C1NCc2cc(-c3cnn(CC(F)(F)F)c3)c(-c3ccc(F)cc3F)cc21 [Compound 131, 6-(2,4-difluorophenyl)-5-(1-(2,2,2-trifluoroethyl)-1H-pyrazol-4-yl)isoindolin-1-one] | 366 |
| O=C1NCc2cc(-c3cnn(CC4CC4)c3)c(-c3ccc(F)cc3F)cc21 [Compound 132, 5-(1-(cyclopropylmethyl)-1H-pyrazol-4-yl)-6-(2,4-difluorophenyl)isoindolin-1-one] | 529 |
| CC(C)n1cc(-c2cc3c(cc2-c2ccc(F)cc2F)C(=O)NC3)cn1 [Compound 133, 6-(2,4-difluorophenyl)-5-(1-isopropyl-1H-pyrazol-4-yl)isoindolin-1-one] | 1820 |
| CCn1cc(-c2cc3c(cc2-c2ccc(F)cc2F)C(=O)NC3)cn1 [Compound 134, 6-(2,4-difluorophenyl)-5-(1-ethyl-1H-pyrazol-4-yl)isoindolin-1-one] | 2350 |
| O=C1NCc2cc(-c3ccc(=O)n(C(F)F)c3)c(-c3ccc(F)cc3F)cc21 [Compound 135, 5-(1-(difluoromethyl)-6-oxo-1,6-dihydropyridin-3-yl)-6-(2,4-difluorophenyl)isoindolin-1-one] | 2020 |
| O=C1NCc2cc(-c3cccc4c3CNC4=O)c(-c3ccc(F)cc3F)cc21 [Compound 136, 6′-(2,4-difluorophenyl)-[4,5′-biisoindoline]-1,1′-dione] | 3180 |
| Nc1ccccc1-c1cc2c(cc1-c1ccc(F)cc1F)C(=O)NC2 [Compound 137, 5-(2-aminophenyl)-6-(2,4-difluorophenyl)isoindolin-1-one] | 816 |
| N#Cc1cccc(-c2cc3c(cc2-c2ccc(C#N)cc2F)C(=O)NC3)c1 [Compound 138, 4-(6-(3-cyanophenyl)-3-oxoisoindolin-5-yl)-3-fluorobenzonitrile] | 537 |
| N#Cc1cccc(-c2cc3c(cc2-c2ccc(F)c(F)c2F)C(=O)NC3)c1 [Compound 139, 3-(1-oxo-6-(2,3,4-trifluorophenyl)isoindolin-5-yl)benzonitrile] | 728 |
| N#Cc1cccc(-c2cc3c(cc2-c2cc(F)c(F)cc2F)C(=O)NC3)c1 [Compound 140, 3-(1-oxo-6-(2,4,5-trifluorophenyl)isoindolin-5-yl)benzonitrile] | 1520 |
| N#Cc1cccc(-c2cc3c(cc2-c2ccc(F)cc2C#N)C(=O)NC3)c1 [Compound 141, 2-(6-(3-cyanophenyl)-3-oxoisoindolin-5-yl)-5-fluorobenzonitrile] | 220 |

Further lines, results first:

| IC50 [nM] | Compound |
| --- | --- |
| 1310 | Cc1ccc(-c2cc3c(cc2-c2cccc(C#N)c2)CNC3=O)c(F)c1 [Compound 142, 3-(6-(2-fluoro-4-methylphenyl)-1-oxoisoindolin-5-yl)benzonitrile] |
| 1670 | Cc1cc(F)ccc1-c1cc2c(cc1-c1cccc(C#N)c1)CNC2=O [Compound 143, 3-(6-(4-fluoro-2-methylphenyl)-1-oxoisoindolin-5-yl)benzonitrile] |
| 3070 | N#Cc1cccc(-c2cc3c(cc2-c2ccc(C(F)(F)F)cc2F)C(=O)NC3)c1 [Compound 144, 3-(6-(2-fluoro-4-(trifluoromethyl)phenyl)-1-oxoisoindolin-5-yl)benzonitrile] |
| 5910 | O=C1NCc2cc(-c3ccnn3C3CCCCO3)c(-c3ccc(F)cc3F)cc21 (centres unmarked) [Compound 147, 6-(2,4-difluorophenyl)-5-(1-(tetrahydro-2H-pyran-2-yl)-1H-pyrazol-5-yl)isoindolin-1-one] |
| 454 | O=C1NCc2cc(-c3cnc(Cl)n3C3CCCCO3)c(-c3ccc(F)cc3F)cc21 (centres unmarked) [Compound 148, 5-(2-chloro-1-(tetrahydro-2H-pyran-2-yl)-1H-imidazol-5-yl)-6-(2,4-difluorophenyl)isoindolin-1-one] |
| 532 | O=C1NCc2cc(-c3cccc4c3OCC4)c(-c3ccc(F)cc3F)cc21 [Compound 149, 6-(2,4-difluorophenyl)-5-(2,3-dihydrobenzofuran-7-yl)isoindolin-1-one] |
